# Reference: US20210094954A1, “PREPARATION METHODS AND APPLICATIONS OF 3,5-DISUBSTITUTED METHYLPYRAZOLO[1,5-A]PYRIMIDINE-7-HYDROXYLIC SALTS” (priority 2019, published 2021)
# Where two headings read alike, the source gives them in different places.
# Experiments:
# Type in all cases: cell-based
# [1] = system: Streptococcus pneumoniae 10351; assay: microbe, parasite or virus in culture; conditions: Streptococcus pneumoniae, 10351; 37° C., 24 hours; read-out: MIC values of in vitro antibacterial test results
# [2] = system: Staphylococcus aureus 29231; assay: microbe, parasite or virus in culture; conditions: Staphylococcus aureus, 29231; 37° C., 24 hours; read-out: MIC values of in vitro antibacterial test results
# Clostridium perfringens = assay: microbe, parasite or virus in culture; conditions: Clostridium perfringens, 24 h, read-out: MIC values of in vitro antibacterial test results
# [3] = system: Streptococcus pneumoniae 6303 (PRSP); assay: microbe, parasite or virus in culture; conditions: Streptococcus pneumoniae, PRSP, 24 h, read-out: MIC values of in vitro antibacterial test results
# [4] = system: Streptococcus agalactia B group; assay: microbe, parasite or virus in culture; conditions: Streptococcus; 37° C., 24 hours; read-out: MIC values of in vitro antibacterial test results
# [5] = system: Bacillus anthracis Bacillus 1; assay: microbe, parasite or virus in culture; conditions: Bacillus anthracis, 24 h, read-out: MIC values of in vitro antibacterial test results
# [6] = system: Staphylococcus aureus 43300(MRSA); assay: microbe, parasite or virus in culture; conditions: Staphylococcus aureus, MRSA
# Diphtheria bacilli = assay: organism not typed; conditions: 37° C., 24 hours; read-out: MIC values of in vitro antibacterial test results
# Oral Candida = assay: microbe, parasite or virus in culture; conditions: Candida
# Bacillus cereus 2 = assay: microbe, parasite or virus in culture; conditions: Bacillus cereus, 2; 37° C., 24 hours; read-out: MIC values of in vitro antibacterial test results
# [7] = system: F2518(VRE), Staphylococcus aureus resistant strain 43300(MRSA), 703 (MRSA), pneumococcal resistance bacteria 6303(PRSP); assay: microbe, parasite or virus in culture; conditions: read-out: MIC values (μM)
# [8] = system: Streptococcus pneumoniae M2; assay: microbe, parasite or virus in culture; conditions: Streptococcus pneumoniae, M2; 37° C., 24 hours; read-out: MIC values of in vitro antibacterial test results
# [9] = system: Enterococcus faecalis 29212; assay: microbe, parasite or virus in culture; conditions: Enterococcus faecalis, 29212; 37° C., 24 hours; read-out: MIC values of in vitro antibacterial test results
# [10] = system: Enterococcus faecalis F2518(VRE); assay: microbe, parasite or virus in culture; conditions: Enterococcus faecalis, VRE, 24 h, read-out: MIC values of in vitro antibacterial test results
# Peel fungus = assay: organism not typed; conditions: 37° C., 24 hours; read-out: MIC values of in vitro antibacterial test results
# Bacillus subtilis 168 = assay: microbe, parasite or virus in culture; conditions: Bacillus subtilis, 168; 37° C., 24 hours; read-out: MIC values of in vitro antibacterial test results
# [11] = system: Staphylococcus aureus 703(MRSA); assay: microbe, parasite or virus in culture; conditions: Staphylococcus aureus, MRSA
# [12] = 24 h, read-out: MIC values of in vitro antibacterial test results
# [13] = 37° C., 24 hours, read-out: MIC values of in vitro antibacterial test results
Structure (SMILES),MIC [1] [µg/mL],MIC [2] [µg/mL],MIC (Clostridium perfringens) [µg/mL],MIC [3] [µg/mL],MIC [4] [µg/mL],MIC [5] [µg/mL],"MIC [6, 12] [µg/mL]",MIC (Diphtheria bacilli) [µg/mL],MIC (Oral Candida; read-out: MIC values (μM)) [µg/mL],MIC (Oral Candida; [13]) [µg/mL],MIC (Bacillus cereus 2) [µg/mL],MIC [7] [µg/mL],MIC [8] [µg/mL],MIC [9] [µg/mL],MIC [10] [µg/mL],MIC (Peel fungus) [µg/mL],MIC (Bacillus subtilis 168) [µg/mL],"MIC [11, 12] [µg/mL]",MIC ([6]; read-out: MIC values (μM)) [µg/mL],MIC ([11]; read-out: MIC values (μM)) [µg/mL]
"CC(=O)Oc1ccc(-c2cc([O-])n3nc(C)c(-c4ccc(F)cc4F)c3n2)cc1.[Na+] [Compound 13, Sodium 5-(4-acetoxyphenyl)-3-(2,4-difluorophenyl)-2-methylpyrazolo[1,5-α]pyrimidin-7-olate]",> 150,> 150,> 150,> 150,> 150,> 150,< 100,> 150,< 100,< 100,< 150,< 100,< 100,< 150,< 150,< 150,> 150,< 150,,
"Cc1nn2c([O-])cc(-c3ccc(C#N)nc3)nc2c1-c1ccc(F)cc1F.[Na+] [Compound 15, sodium 5-(6-cyanopyridin-3-yl)-3-(2,4-difluorophenyl)-2-methylpyrazolo[1,5-α]pyrimidin-7-olate]",< 100,< 100,> 150,< 150,> 150,> 150,< 150,> 150,,< 150,< 100,< 100,< 100,< 100,< 150,> 150,< 150,< 100,,
"Cc1nn2c([O-])cc(-c3ccc(C(=O)[O-])cc3)nc2c1-c1ccc(F)cc1F.[Na+].[Na+] [Compound 7, Disodium 4-(3-(2,4-difluorophenyl)-2-methyl-7-hydroxy-pyrazolo[1,5-α]pyrimidin-5-yl)benzoate]",> 150,> 150,> 150,> 150,> 150,> 150,< 100,> 150,,> 150,< 150,< 100,< 100,< 150,< 150,< 150,> 150,< 150,,
"Cc1nn2c([O-])cc(-c3ccc(C#N)cc3)nc2c1-c1ccc(F)cc1F.[Na+] [Compound 2, Sodium 5-(4-cyanophenyl)-3-(2,4-difluorophenyl)-2-methylpyrazolo[1,5-α]pyrimidin-7-olate]",< 100,< 100,> 150,< 150,< 150,> 150,< 50,> 150,,< 150,< 100,< 100,< 150,< 100,< 150,< 150,< 150,< 50,< 50,< 50
"Cc1nn2c([O-])cc(-c3ccc(S(N)(=O)=O)cc3)nc2c1-c1ccc(F)cc1F.[K+] [Compound 25, Potassium 3-(2,4-difluorophenyl)-2-methyl-5-(4-sulfamoylphenyl)pyrazolo[1,5-α]pyrimidin-7-olate]",> 150,> 150,> 150,> 150,> 150,> 150,< 150,> 150,< 100,< 100,< 150,< 100,< 100,< 150,< 150,< 150,> 150,< 150,,
"COc1ccc(-c2cc([O-])n3nc(C)c(-c4ccc(F)cc4F)c3n2)cn1.[Na+] [Compound 17, sodium 3-(2,4-difluorophenyl)-5-(6-methoxypyridin-3-yl)-2-methylpyrazolo[1,5-α]pyrimidin-7-olate]",> 150,> 150,> 150,> 150,> 150,> 150,< 100,> 150,< 100,< 100,< 150,< 100,< 100,< 150,< 150,< 150,> 150,< 150,,
"Cc1nn2c([O-])cc(-c3ccc(C(N)=O)cc3)nc2c1-c1ccc(F)cc1F.[Na+] [Compound 11, Sodium 5-(4-carbamoylphenyl)-3-(2,4-difluorophenyl)-2-methylpyrazolo[1,5-α]pyrimidin-7-olate]",> 150,> 150,> 150,> 150,> 150,> 150,< 100,> 150,,< 150,< 150,< 100,< 100,< 150,< 150,< 150,> 150,< 150,,
"Cc1nn2c([O-])cc(-c3ccc(C#N)cc3)nc2c1-c1ccc(F)cc1F.[K+] [Compound 20, Potassium 5-(4-cyanophenyl)-3-(2,4-difluorophenyl)-2-methylpyrazolo[1,5-α]pyrimidin-7-olate]",< 100,< 100,< 150,< 150,> 150,> 150,< 150,< 150,,< 150,< 100,< 100,< 100,< 100,< 150,> 150,< 100,< 100,,
"Cc1nn2c([O-])cc(-c3ccc(C(=O)[O-])nc3)nc2c1-c1ccc(F)cc1F.[Na+].[Na+] [Compound 21, Disodium 5-(3-(2,4-difluorophenyl)-2-methyl-7-hydroxypyrazolo[1,5-α]pyrimidin-5-yl)picolinate]",> 150,> 150,> 150,> 150,> 150,> 150,< 100,> 150,< 100,< 100,< 150,< 100,< 100,< 150,< 150,< 150,> 150,< 150,,
"Cc1nn2c([O-])cc(-c3ccc(N(C)C)nc3)nc2c1-c1ccc(F)cc1F.[Na+] [Compound 18, Sodium 3-(2,4-difluorophenyl)-5-(6-(dimethylamino)pyridin-3-yl)-2-methylpyrazolo[1,5-α]pyrimidin-7-olate]",> 150,> 150,> 150,> 150,> 150,> 150,< 100,> 150,,> 150,< 100,< 100,< 100,< 150,< 150,< 150,> 150,< 150,,
"Cc1nn2c([O-])cc(-c3ccc(C(F)(F)F)cc3)nc2c1-c1ccc(F)cc1F.[K+] [Compound 22, potassium 3-(2,4-difluorophenyl)-2-methyl-5-(4-(trifluoromethyl)phenyl)pyrazolo[1,5-α]pyrimidin-7-olate]",< 150,< 100,> 150,< 150,< 150,> 150,< 100,> 150,< 100,< 100,< 100,< 100,< 100,< 150,< 150,< 150,< 100,< 100,,
